From patent publication US11370841B2, “Methods of treating fibroblast growth factor 19-mediated cancers and tumors” (NGM Biopharmaceuticals, Inc., priority 2016, dated 2022)

Legend:
hepatic mRNA levels = assay: Hepatic gene expression in FGF19-treated db/db mice (qRT-PCR)
[1] = tested on: primary mouse hepatocytes; assay: In vitro BrdU incorporation in primary mouse hepatocytes; format: cell-based; conditions: 48 hours incubation
Procedure: (§1) FIGS. 2A-2E depict non-cell autonomous promotion of hepatocellular proliferation by FGF19. 11 week old mice (n=5 per group) were implanted with osmotic pumps releasing BrdU (8.5 mg/kg/day) and FGF19 protein (0.4 mg/kg/day). Livers were harvested 6 days post-implant. (FIG. 2A) Flow cytometry analysis of BrdU-labeled livers is shown. Representative histograms from hepatocytes stained with 7-ADD and anti-BrdU-APC are shown. (FIG. 2B) BrdU-positive hepatocytes as a percentage of total hepatocytes from vehicle (V)-treated (n=5) or FGF19-treated (n=5) mice were quantified by flow cytometry. (FIG. 2C) Shown are circulating FGF19 levels on day 6 post-implant of osmotic pumps. (FIG. 2D) Lack of proliferative effects of FGF19 on primary mouse hepatocytes. Primary cultures of hepatocytes isolated from mouse liver were incubated with recombinant FGF19 protein at the indicated concentrations for 48 hours and BrdU was added during the last 20 hours of incubation. BrdU incorporation was determined using a luminescence method. Mouse hepatocyte growth factor (mHGF) was included as a positive control. RLU, relative luminescence unit. (FIG. 2E) Lack of proliferative effects of FGF19 on primary human hepatocytes. Primary cultures of hepatocytes isolated from human liver were incubated with recombinant FGF19 protein. Human hepatocyte growth factor (hHGF) was included as a positive control. […]

[2] = tested on: primary human hepatocytes; assay: In vitro BrdU incorporation in primary human hepatocytes; format: cell-based; conditions: purified primary human hepatocytes
Procedure: as §1

FGF19-induced HCC = assay: Tumorigenicity study in IL-6-deficient mice; format: in vivo; conditions: both Il6+/+ and Il6-/- mice, AAV-expressed FGF19
Procedure: Histology and immunohistochemistry. […] Hematoxylin and eosin staining was performed using standard methods. […] When indicated, sections were counterstained with hematoxylin.
Tumorigenicity study in IL-6-deficient mice. Il6^−/− mice were backcrossed to C57BL/6 mice for at least nine generations. Age and gender-matched wild type C57BL6 mice were used as Il6^+/+ controls. […] Body weight, body composition, and blood glucose were measured at designated times. Mice were euthanized 52 weeks post-AAV administration for liver tumor assessment.

[3] = tested on: primary mouse hepatocytes; assay: In vitro pSTAT3 activation in primary mouse hepatocytes; format: cell-based
Procedure: Primary mouse hepatocytes were isolated from 8-10 week old wild type mice (BioReclamation/IVT). Cells were diluted in attachment media, and cells were plated on collagen-coated 6-well plate (Becton Dickinson). Four hours later, cells were changed into M199 media supplemented with 10% FBS, 2 mM glutamine, 100 unit/ml penicillin, 100 unit/ml streptomycin, and cultured for 16 hours at 37° C. When indicated, 50 ng/ml FGF19 protein or 50 ng/ml mouse IL-6 (Peprotech) were added.
Cell extracts were prepared in 50 mM Tris-Cl, PH 7.2, 150 mM NaCl, 1% NP-40, 0.1% SDS, 0.5% sodium deoxycholate supplemented with a protease inhibitor cocktail (Roche) and phosphatase inhibitors (Sigma, phosphatase inhibitor cocktail set 2 and set 3), and protein concentrations were determined by BCA protein assay (Thermo Scientific).
Immunoblotting. Cell or tissue lysates were mixed with 4×SDS sample loading buffer (50 mM Tris-Cl, pH6.8, 2.5% SDS, urea, 4% β-mercaptoethanol), heated for 10 minutes at 95° C., and separated on 4-20% SDS-polyacrylamide gels (Life Technologies) in 1×MOPS running buffer. Proteins were transferred onto PVDF membranes (GE Healthcare). Membranes were blocked in TBST buffer (20 mM Tris-Cl, pH 7.6, 137 mM NaCl, 0.1% Tween-20) containing 5% non-fat dry milk for 1 hour at room temperature, and incubated with anti-pSTAT3^Y705, anti-total STAT3, anti-pERK, anti-total ERK, or anti-β-actin antibodies in blocking buffer at 4° C. overnight. Membranes were washed in TBST extensively, and bound proteins were detected with horseradish peroxidase-conjugated goat-anti-mouse IgG or goat-anti-rabbit IgG antibodies (GE Healthcare) for 1 hour at room temperature. […]
To investigate an in vitro direct effect of FGF19 on STAT3 activation in isolated hepatocytes, pSTAT3^Y705 levels in primary cultures of hepatocytes upon FGF19 stimulation were analyzed by western blotting. […] Cell lysates were prepared at the indicated time points following FGF19 stimulation and analyzed for phosphorylation of the various proteins.

[4] = FGF19 protein 1 mg/kg i.p., 2 hours

FGF19: Fibroblast growth factor 19, mature human 194 amino acid polypeptide (SEQ ID NO: 1); recombinant protein or AAV-expressed
Hepatic mRNA levels of IL-6 (hepatic mRNA levels; [4]): increased significantly | RNA levels of IL-11, LIF, OSM, CNTF and CTF1 (hepatic mRNA levels; [4]): remained unchanged or undetectable | Hepatic Cyp7a1 mRNAs (hepatic mRNA levels; acute FGF19 treatment): efficiently suppressed | BrdU signal [1]: no increase | Proliferative effect (BrdU incorporation) [2]: lack of direct proliferative effect | Body fat composition (FGF19-induced HCC): efficiently reduced | STAT3 phosphorylation (pSTAT3 Y705) by western blotting ([3]; isolated mouse hepatocytes, 50 ng/ml): did not enhance STAT3 phosphorylation | Phosphorylation of ERK1 and ERK2 ([3]; primary cultures of mouse hepatocytes): apparent
